Columns and labels:
PPPDE2 = molecular target: T1, PPPDE2 (Homo sapiens, UniProt Q6ICB0); test: fluorogenic assay coupled to beta-glucosidase; type: biochemical; conditions: 10 μM substrate, 20 μg beta-glucosidase, pH 5.0, 37°C
T1 sequence (Q6ICB0 1-168): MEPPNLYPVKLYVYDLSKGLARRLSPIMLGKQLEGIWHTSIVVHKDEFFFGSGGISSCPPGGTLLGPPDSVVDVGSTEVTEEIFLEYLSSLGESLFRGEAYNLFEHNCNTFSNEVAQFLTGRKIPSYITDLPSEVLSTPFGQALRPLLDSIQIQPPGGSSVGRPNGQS

PPPDE1 = PPPDE1 (Homo sapiens, UniProt Q9BSY9); test: fluorogenic assay coupled to beta-glucosidase; type: biochemical; conditions: 10 μM substrate, 20 μg beta-glucosidase, pH 5.0, 37°C
Chain of PPPDE1 (Q9BSY9 whole entry): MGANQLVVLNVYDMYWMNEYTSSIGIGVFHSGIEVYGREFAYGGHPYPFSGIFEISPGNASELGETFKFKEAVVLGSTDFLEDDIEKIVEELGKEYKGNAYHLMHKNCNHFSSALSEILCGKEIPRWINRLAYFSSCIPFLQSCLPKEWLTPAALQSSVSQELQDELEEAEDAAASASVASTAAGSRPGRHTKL

## CCCCCCCCCCCCCCCC(=O)SC[C@H]1O[C@@H](Oc2ccc3c(C)cc(=O)oc3c2)[C@H](O)[C@@H](O)[C@@H]1O [MU-6S-palm-βGlc, 4-methylumbelliferyl 6-thio-palmitate-β-D-glucopyranoside]
PPPDE2
  fluorogenic assay coupled to beta-glucosidase: both showed high S-depalmitoylation activity by assaying DPP-5 or MU-6S-palm-βGlc
PPPDE1
  fluorogenic assay coupled to beta-glucosidase: both showed high S-depalmitoylation activity by assaying DPP-5 or MU-6S-palm-βGlc
